Laboratory results reported in patent US5374634A, “Pyridine derivatives” (Kyowa Hakko Kogyo Co., Ltd., priority 1992, dated 1994).

The compounds below were run on PTH-induced calcium release (i.e. bone resorption) from bones (calvaria) (assay: Bone resorption-inhibiting effect: inhibition of PTH-induced calcium release from cultured calvaria). Conditions: mouse half calvaria culture; PTH 1×10^-8 M; calcium in medium at 96 hours; test compound 3×10^-6, 1×10^-5, 3×10^-5 M.
Format: cell-based, dd mice (5- to 6-day-old)
Method: The bone resorption-inhibiting effect of the compounds of the present invention is illustrated by the following experiment.
Calvaria were aseptically removed from 5- to 6-day-old dd mice, washed with Dulbecco's modified phosphate-buffered saline not containing calcium and magnesium (product of Gibco Oriental Co.), and cut along the sagittal suture into left and right halves. Each half calvarium was cultured in 1.5 ml medium consisting of Dulbecco's modified Eagle medium (high glucose) (product of Gibco Oriental Co.) supplemented with 15% heat-inactivated (at 56° C. for 20 minutes) horse serum, 2.5% heat-inactivated fetal bovine serum, plus 1% antibiotic-antimycotic liquid. The test compound was dissolved in dimethylsulfoxide, and a 10 μl portion of the solution was added to the culture to the final concentrations of 3×10^-6 M, 1×10^-5 M and 3×10^-5 M. PTH (parathyroid hormone) was dissolved in 0.15M sodium chloride (pH 3), and a 3 μl-portion of the resulting solution was added to the culture to the final concentration of 1×10^-8 M. Cultures were incubated at 37° C. in a water-saturated atmosphere consisting of 5% CO2 and 95% air. Typically, cultures were maintained for 96 hours and the media were changed at 48 hours. The test compound and PTH which had been processed in the same manner as described above were added thereto. In order to investigate the action of the test compound on PTH-induced calcium release (i.e. bone resorption) from bones, there were prepared 3 groups: control group, PTH treated group (1×10^-8 M) and test compound- and PTH-treated group (3×10^-6 M, 1×10^-5 M, 3×10^-5 M). Bone resorption was assessed by measuring the accumulation of calcium in the culture media collected at 96 hours of culturing. The total calcium concentrations were determined using Calcium C-Test Wako (product of Wako). The inhibition rate was calculated therefrom according to the equation given below and 50% inhibitory concentration (IC50) was determined. [formula] CO : Total calcium concentration in the culture free from both PTH and test compound
Cp : Total calcium concentration in the culture treated with PTH only
CD : Total calcium concentration in the culture treated with both PTH and test compound.
`O=C(NC12CC3CC(CC1C3)C2)c1ccncc1C(c1ccc(O)cc1)c1ccc(O)cc1` [Compound 9, N-(Tricyclo[3.3.1.0^3,7]non-3-yl)-3-[bis(4-hydroxyphenyl)methyl]-4-pyridinecarboxamide] showed an IC50 of 18.6 µM. Compound `O=C(c1ccncc1C(c1ccc(O)cc1)c1ccc(O)cc1)N1CCCCC1` [Compound 10] has an IC50 of 19.2 µM. Work on `O=C(NC12CC3CC(CC(C3)C1)C2)c1ccncc1C(c1ccc(O)cc1)c1ccc(O)cc1` [Compound 11, N-(Tricyclo[3.3.1.1^3,7]dec-1-yl)-3-[bis(4-hydroxyphenyl)methyl]-4-pyridinecarboxamide] yielded an IC50 of 20.3 µM. `O=C(NC1CCCCCCC1)c1ccncc1C(c1ccc(O)cc1)c1ccc(O)cc1` [Compound 12, N-Cyclooctyl-3-[bis(4-hydroxyphenyl)methyl]-4-pyridinecarboxamide] gave an IC50 of 11.6 µM. `O=C(c1ccncc1C(c1ccc(O)cc1)c1ccc(O)cc1)N1CCN(c2ccccc2Cl)CC1` [Compound 13, 1-(2-Chlorophenyl)-4-{[3--bis(4,hydroxyphenyl)methyl]isonicotinyl}piperazine] was tested, and the IC50 was 6 µM. For `O=C(Nc1ccc(O)cc1)c1ccncc1C(c1ccc(O)cc1)c1ccc(O)cc1` [Compound 15, N-(4-Hydroxyphenyl)-3-[bis(4-hydroxyphenyl)methyl]-4-pyridinecarboxamide], the IC50 was 75.6 µM. Work on `O=C(c1ccncc1C(c1ccc(O)cc1)c1ccc(O)cc1)N1CCN(c2cccc(C(F)(F)F)c2)CC1` [Compound 16, 1-(3-Trifluoromethylphenyl)-4-{[3-bis(4-hydroxyphenyl)methyl]isonicotinyl}piperazine] yielded an IC50 of 7.1 µM. With `O=C(c1ccncc1C(c1ccc(O)cc1)c1ccc(O)cc1)N1CCN(c2ccc(Cl)cc2)CC1` [Compound 17, 1-(4-Chlorophenyl)-4-{[3-bis(4-hydroxyphenyl)methyl]isonicotinyl}piperazine] the IC50 was 24.9 µM. For `O=C(c1ccncc1C(c1ccc(O)cc1)c1ccc(O)cc1)N1CCN(c2cccc(Cl)c2)CC1` [Compound 18, 1-(3-Chlorophenyl)-4-{[3-bis(4-hydroxyphenyl)methyl]isonicotinyl}piperazine], the IC50 was 14 µM. With `O=C(c1ccncc1C(c1ccc(O)cc1)c1ccc(O)cc1)N1CCN(c2ccccc2O)CC1` [Compound 19, 1-(2-Hydroxyphenyl)-4-{[3-bis(4-hydroxyphenyl)methyl]isonicotinyl}piperazine] the IC50 was 8.9 µM. `O=C(c1ccncc1C(c1ccc(O)cc1)c1ccc(O)cc1)N1CCN(c2ccccc2)CC1` [Compound 20, 1-Phenyl-4-{[3-bis(4-hydroxyphenyl)methyl]isonicotinyl}piperazine] showed an IC50 of 75.6 µM. For `Cc1cccc(N2CCN(C(=O)c3ccncc3C(c3ccc(O)cc3)c3ccc(O)cc3)CC2)c1` [Compound 21, 1-(3-Methylphenyl)-4-{[3-bis(4-hydroxyphenyl)methyl]isonicotinyl}piperazine], the IC50 was 8.5 µM. Compound `O=C(c1ccncc1C(c1ccc(O)cc1)c1ccc(O)cc1)N1CCN(c2ncccn2)CC1` [Compound 22, 1-(2-Pyrimidyl)-4-{[3-bis(4-hydroxyphenyl)methyl]isonicotinyl}piperazine] has an IC50 of 19.6 µM.

What follows are compounds tested on dd-strain male mice (assay: Acute toxicity test (oral, minimum lethal dose)). Conditions: mortality observed for 7 days.
Format: in vivo
Method: A test compound was orally administered to three dd-strain male mice weighing 20±1 g. The minimum lethal dose (MLD) was determined by observing the mortality for 7 days after the administration.
For `COc1ccc(C(c2ccc(OC)cc2)c2cnccc2C(=O)N2CCN(c3ccccc3Cl)CC2)cc1` [Compound 6, 1-(2-Chlorophenyl)-4-{[3-bis(4-methoxyphenyl)methyl]-isonicotinyl}piperazine], the “MLD (minimum lethal dose)” value was > 300 mg/kg. `O=C(c1ccncc1C(c1ccc(O)cc1)c1ccc(O)cc1)N1CCN(c2ccccc2Cl)CC1` [Compound 13, 1-(2-Chlorophenyl)-4-{[3--bis(4,hydroxyphenyl)methyl]isonicotinyl}piperazine] was tested, and the “MLD (minimum lethal dose)” value was > 1000 mg/kg. With `O=C(c1ccncc1C(c1ccc(O)cc1)c1ccc(O)cc1)N1CCN(c2cccc(Cl)c2)CC1` [Compound 18, 1-(3-Chlorophenyl)-4-{[3-bis(4-hydroxyphenyl)methyl]isonicotinyl}piperazine] the “MLD (minimum lethal dose)” value was > 300 mg/kg.
